According to US7101885B2, “Piperazinyl-aryloxy and piperazinyl-heteroaryloxy-n-aryl lactams” (Pfizer Inc, priority 2003, dated 2006):
Where a name gives a salt, the structure may show the parent alone.

First: CN1CCN(c2ccccc2OC2CCN(c3ccc(C(F)(F)F)cc3)C2=O)CC1.Cl (stereo not drawn)
Second: CN1CCN(c2ccccc2OC2CCCN(c3ccc(C(F)(F)F)cc3)C2=O)CC1 (stereo not drawn) [Example 7, 3-[2-(4-Methyl-piperazin-1-yl)-phenoxy]-1-(4-trifluoromethyl-phenyl)-piperidin-2-one]
The melting point of the first is higher: 137 to 162 °C for the first, 81 to 110 °C for the second.

First: CN1CCN(c2ncccc2OC2CCN(c3ccc(Br)cc3)C2=O)CC1 (stereo not drawn) (as salt: hydrochloride) [Example 8, 1-(4-Bromo-phenyl)-3-[2-(4-methyl-piperazin-1-yl)-pyridin-3-yloxy]-pyrrolidin-2-one]
Second: CN1CCN(c2ncccc2OC2CCN(c3ccc(C(C)(C)C)cc3)C2=O)CC1 (stereo not drawn) (as salt: salt) [Example 9, 1-(4-tert-Butyl-phenyl)-3-[2-(4-methyl-piperazin-1-yl)-pyridin-3-yloxy]-pyrrolidin-2-one]
The melting point of the first is lower: 72 to 82 °C for the first, 131 to 164 °C for the second.

`CC(C)Oc1ccc(N2CCC(Oc3cccnc3N3CCN(C)CC3)C2=O)cc1` (stereo not drawn) (as salt: salt) [Example 15, 1-[4-(Isopropoxy)-phenyl]-3-[2-(4-methyl-piperazin-1-yl)-pyridin-3-yloxy]-pyrrolidin-2-one] and `CN1CCN(c2ncccc2OC2CCN(c3ccc(OC(F)(F)F)cc3)C2=O)CC1` (stereo not drawn) (as salt: salt) [Example 16, 1-[4-(Trifluoromethoxy)-phenyl]-3-[2-(4-methyl-piperazin-1-yl)-pyridin-3-yloxy]-pyrrolidin-2-one] cannot be ordered by melting point: 93 to 120 °C for the first, 113 to 140 °C for the second.

Compared with `CN1CCN(c2ncccc2OC2CCN(c3ccc(C4CCOCC4)cc3)C2=O)CC1` (stereo not drawn) (as salt: salt) [Example 17, 3-[2-(4-Methyl-piperazin-1-yl)-pyridin-3-yloxy]-1-[4-(tetrahydro-pyran-4-yl)-phenyl]-pyrrolidin-2-one], `CN1CCN(c2ncccc2OC2CCN(c3ccc(N4CCCCC4=O)cc3)C2=O)CC1` (stereo not drawn) [Example 11, 1-(4-{3-[2-(4-Methyl-piperazin-1-yl)-pyridin-3-yloxy]-2-oxo-pyrrolidin-1-yl}-phenyl)-piperidin-2-one] is lower in melting point: 219 to 248 °C for the first, 111 to 149 °C for the second.

Compared with `CN1CCN(c2ncccc2OC2CCN(c3ccc(-c4ccon4)cc3)C2=O)CC1` (stereo not drawn) (as salt: salt) [Example 21, 1-[4-(3-Isoxazolyl)-phenyl]-3-[2-(4-methyl-piperazin-1-yl)-pyridin-3-yloxy]-pyrrolidin-2-one], `CN1CCN(c2ccccc2OC2CCN(c3ccc(N4CCCC4=O)cc3)C2=O)CC1` (stereo not drawn) [Example 3, 3-[2-(4-Methyl-piperazin-1-yl)-phenoxy]-1-(4-(2-oxo-pyrrolidin-1-yl)-phenyl)-pyrrolidin-2-one] is lower in melting point: 220 °C for the first, 164 to 180 °C for the second.

`CN1CCN(c2ccccc2OC2CCCN(c3ccc(N4CCCC4=O)cc3)C2=O)CC1` (stereo not drawn) [Example 5, 3-[2-(4-Methyl-piperazin-1-yl)-phenoxy]-1-[4-(2-oxo-pyrrolidin-1-yl)-phenyl]-piperidin-2-one] and `CN1CCN(c2ccccc2OC2CCCN(c3ccc(N4CCOC4=O)cc3)C2=O)CC1` (stereo not drawn) [Example 6, 3-[2-(4-Methyl-piperazin-1-yl)-phenoxy]-1-[4-(2-oxo-oxazolidin-3-yl)-phenyl]-piperidin-2-one] cannot be ordered by melting point: 68 to 75 °C for the first, 71 to 88 °C for the second.
